Data from US10596166B2, “Combination composition comprising huperzine” (priority 2015, dated 2020).

Key:
[1] = tested on: primary cortical neurons injured by Aβ; experiment: Aβ-peptide toxicity on primary cortical neurons (neuron survival, neurite network); type: cell-based, rat; conditions: Aβ 20 μM, 24 h
Procedure: The present study used an in vitro model of Alzheimer's disease established by Callizot et al. [2013, already cited], using Aβ-peptide solution containing Aβ-oligomers and permitting to reproduce essential neuropathological features of Alzheimer's disease.
The Aβ1-42-preparation was obtained following the procedure described by Callizot et al. [2013, already cited]. Briefly, Aβ1-42 peptide was dissolved in the defined culture medium mentioned above, devoid of serum, at an initial concentration of 40 μmol/liter. This solution was gently agitated for 3 days at 37° C. in the dark and immediately used after being diluted in culture medium to the concentrations used.
On day 11 of culture, HA, CA, FA and mixtures thereof were solved and diluted in culture medium and then pre-incubated with cortical neurons 1 hour before the Aβ1-42-peptide application. Aβ1-42-preparation was then added to a final concentration of 20 μM diluted in control medium.
After 24 hours of Aβ-intoxication, the cultures were fixed and immunolabeled and the neuron survival and the neurite network length were assessed as described in the above example.

[2] = tested on: TH positive dopaminergic neurons injured with MPP+; experiment: MPP+ toxicity on TH positive dopaminergic neurons of primary mesencephalic culture; type: cell-based, rat; conditions: MPP+ 4 μM, 48 h
Procedure: Rat dopaminergic neurons were cultured as described by Schinelli et al., J Neurochem. 1988 June; 50(6):1900-7 and Visanji et al., 2008 [previously cited].
Briefly, the midbrains obtained from 15-days old rat embryos (Janvier Labs, France) were dissected under a microscope. The embryonic midbrains were removed and placed in ice-cold medium of Leibovitz (L15, Pan Biotech) containing 2% of Penicillin-Streptomycin (PS, Pan Biotech) and 1% of bovine serum albumin (BSA, Pan Biotech). The ventral portion of the mesencephalic flexure, a region of the developing brain rich in dopaminergic neurons, was used for the cell preparations.
The midbrains were dissociated by trypsinisation for 20 min at 37° C. (Trypsin 0.05% EDTA 0.02%, PanBiotech). The reaction was stopped by the addition of Dulbecco's modified Eagle's medium (DMEM, PanBiotech) containing DNAase I grade II (0.1 mg/ml, PanBiotech) and 10% of foetal calf serum (FCS, Gibco). Cells were then mechanically dissociated by 3 passages through a 10 ml pipette. Cells were then centrifuged at 180×g for 10 min at +4° C. on a layer of BSA (3.5%) in L15 medium. The supernatant was discarded and the cell pellets were re-suspended in a defined culture medium consisting of Neurobasal (Invitrogen) supplemented with B27 (2%, Invitrogen, Batch: 1589889), L-glutamine (2 mM, PanBiotech) and 2% of PS solution and 10 ng/ml of Brain-derived neurotrophic factor (BDNF, PanBiotech) and 1 ng/ml of Glial-Derived Neurotrophic Factor (GDNF, PanBiotech). Viable cells were counted in a Neubauer cytometer using the trypan blue exclusion test. The cells were seeded at a density of 40 000 cells/well in 96 well-plates pre-coated with poly-L-lysine (Corning Biocoat) and maintained in a humidified incubator at 37° C. in 5% CO2/95% air atmosphere. Half of the medium was changed every 2 days with fresh medium.
On day 6 of culture, the medium was removed and fresh medium was added, without or with MPP^+ (Sigma) at 4 μM diluted in control medium, 6 wells per condition were assessed.
On day 6 of culture, NSP01-001-E001 (2.5, 5, 50, 500 ng/ml, 2.5, 5, 25, 33.3 μg/ml) were solved or diluted in culture medium and then pre-incubated with primary mesencephalic neurons for 1 hour before the MPP^+ application. MPP^+ solution was added to a final concentration of 4 μM diluted in control medium.
After 48 hours intoxication, the cells were then fixed by a solution of 4% paraformaldehyde (PFA, Sigma) in PBS (PAN), pH=7.3 for 20 min at room temperature. The cells were washed again twice in PBS, and then were permeabilized and non-specific sites were blocked with a solution of PBS containing 0.1% of saponin (Sigma) and 1% FCS for 15 min at room temperature. Then, cells were incubated with Monoclonal Anti-Tyrosine Hydroxylase (TH, Sigma) antibody produced in mouse at dilution of 1/10000 in PBS containing 1% FCS, 0.1% saponin, for 2 h at room temperature.
The immunolabeled cultures were automatically examined with ImageXpress (Molecular Devices) equipped with a LED at ×10 magnification. For each condition (6 culture wells), 20 automatically fields per well (representing ˜80% of the total surface of the well) were analyzed. The total number of TH neurons was automatically analyzed using MetaXpress software (Molecular Devices). Data were expressed in percentage of control conditions (no intoxication, no MPP^+=100%) in order to express the MPP^+ injury. All values were expressed as mean±SEM (s.e. mean) of the 6 wells. Graphs and statistical analyses were performed on the different conditions (ANOVA followed by Dunnett's or PLSD Fisher's test when allowed, using GraphPad Prism software).
The protocol used in these assays is the same as described in example 4.
HA (1, 10, 100 nM, 1, 10, 100 μM), CA (5, 50, 500 pM, 5, 50, 500 nM, 1 μM), FA (100 pM, 1, 10, 100 nM, 1, 10, 100 μM and 1 mM) and mixtures thereof were solved or diluted in culture medium and then pre-incubated with primary mesencephalic neurons for 1 hour before the MPP^+ application. […]

COc1cc(/C=C/C(=O)O)ccc1O [FA, ferulic acid]
neurite network ([1]; 10 and 100 μM): significant effect | neuron survival ([1]; whatever the concentration tested): not able to protect | concentration of maximal effect (bell shape curve) [2]: 10 µM | TH positive neuron survival ([2]; 100 pM up to 100 nM): inactive | TH positive neuron survival ([2]; from 1 μM to 1 mM): significant protective effect

O=C(O)/C=C/c1ccc(O)c(O)c1 [CA, caffeic acid]
neuron survival ([1]; 500 pM and below): no effect | neurite network ([1]; even at lower concentrations): Protective effect | neuron survival ([1]; from 5 nM up to 5 μM): significantly protect | TH positive neuron survival ([2]; 5 nM up to 1 μM): large and significant protective effect

C/C=C1\[C@H]2C=C(C)C[C@]1(N)c1ccc(=O)[nH]c1C2 [HA, huperzine A, reference compound]
neuron survival ([1]; HA, all concentrations): not able to significantly protect | TH positive neuron survival ([2]; 1 nM): inactive | TH positive neuron survival ([2]; 100 nM): > 90% | TH positive neuron survival ([2]; 100 μM (in some well toxicity occurred)): did not show some protective effect | TH positive neuron survival ([2]; from 10 nM up to 10 μM): large and significant protective effect
